Source: patent US20260263651A1, “WOUND DRESSING” (UNIVERSITY OF SUNDERLAND, priority 2023, published 2026)
“Also recorded” adds a separate entry of the source.

What was measured:
Format in all cases: cell-based
[1] = test system: Pseudomonas aeruginosa; test: Microbiological evaluation of overnight bacteria suspensions, modified alginate wound dressing with absorbed substrate on agar; settings: PSA overnight culture, 24 h incubation at 37° C.
Protocol: (§1) ACTIVHEAL® simply A (10×20 cm) non-adhesive foam samples were provided by Advanced Medical Solutions Ltd. The wound dressings were cut into ~5-10×5-10 mm squares, using an ethanol washed pair of scissors. A maximum of 0.20 g of the material was added into 10 mL DI water, and the pH was adjusted to ~3 by the addition of 0.1 M aq. HCl solution. The solution was stirred for 10 mins at room temperature, followed by the addition of 0.33 g EDC •HCl (1.7 mmol) and the pH was maintained at ~3 by the addition of 0.1 M aq. HCl solution. The solution was stirred at room temperature for 10 mins followed by the addition of 0.88 g compound 8 which was dissolved in DMSO or DMF. The mixture was stirred at room temperature for 48 h. The wound dressings were filtered and were washed with ethanol. To ensure the full removal of any non-coupled amide (8), the foam samples were resuspended in ethanol, stirred for 10 mins and filtered, and this process was repeated until the amide (8) was not detectable from the filtrate (this could be maintained by TLC or HPLC evaluation). The samples were dried in a vacuum oven for 3-4 h.
(§2) The aqueous solution of 3a or 3b was prepared by the following: the desired amount of the enzymatic substrate (3.0 mg for 300 mg/L, 6.0 mg for 600 mg/L, 9.0 mg for 900 mg/L, 15.0 mg for 1500 mg/L, and 30.0 mg for 3000 mg/L) was weighed out on a 4 decimal place balance within ±0.3 mg error limit into a 10 mL volumetric flask and was adjusted to 10.0 mL with DI water. The solutions were absorbed into the foam samples and dried in a vacuum oven at 40° C. overnight.
To model fluid exudate from a chronic wound, the wound dressing made according to ‘Modification of ActivHeal® Alginate’, above, was placed into an agar plate and the test pathogen was smeared over the surface of the agar.
The enzymatic substrates were tested in 4 different concentrations (300, 600, 900 and 3000 mg/L) using DI water as a solvent, and the solutions were absorbed into the wound dressing samples, which were dried overnight under vacuum at 40° C.
Two Gram negative strains (Escherichia coli—EC and Pseudomonas aeruginosa—PSA) and a Gram positive bacteria (Staphylococcus aureus—SA) were evaluated against the dimethyl (3a) and the diethyl (3b) substituted substrate. The overnight cultures were directly smeared from LB broth onto Columbia blood agar without measuring the OD. The wound dressings with the enzymatic substrate absorbed were placed onto the agar and were incubated overnight (see FIGS. 2-7).

[2] = test system: Pseudomonas aeruginosa; test: Microbiological evaluation of standardised bacterial suspensions, modified wound dressing with absorbed substrate on agar; design: key to Observable colour change: − indicates no colour change; +− indicates relatively discernible blue colour change; + indicates a moderately strong blue colour change; ++ indicates a strong blue colour change
Protocol: as §1, §2
(§3) Bacterial strains were routinely cultured from working stocks in Tryptic Soy Broth (TSB) and incubated at 37° C. overnight with shaking at 150 RPM. Overnight cultures were centrifuged at 3000×g for 5 minutes, the supernatant discarded, and the pellet resuspended in 10 mL phosphate buffered saline (PBS). Bacterial inoculums were standardised by optical density at 600 nm on an Amersham Biosciences Ultrospec 10 spectrophotometer (Amersham Biosciences, Amersham, UK) to contain between 1 and 3×10^8 CFU/mL.
(§4) However, rapid evaluation of lower bacteria concentrations is essential for the desired clinical application. […] The solutions were absorbed into the wound dressing samples, which were dried overnight under vacuum at 40° C.
(§5) Two Gram negative strains (Escherichia coli—EC and Pseudomonas aeruginosa—PSA) and a Gram-positive bacterium (Staphylococcus aureus—SA) were evaluated. The bacteria were incubated overnight, centrifuged at 3000×g for 5 mins, the supernatant was discarded, and the residue pellets were resuspended in 10 mL PBS. The inoculums were standardised by measuring the optical density at 600 nm to assure a 1-3×10^8 CFU/mL. The standardised solutions were further diluted to prepare 1-3×10^6 and 1-3×10^4 CFU/mL suspension. 1×10^6 CFU would be an ideal breakpoint for a positive result, as this concentration coincides well with a level of colonisation that would likely go on to produce an infection.
(§6) 100 μL bacterial suspensions were smeared over agar plates. Wound dressing samples were added to the top of the agar and were rolled over a few times (to ensure a full coverage and to ease the visibility of the colour change). The plates were incubated at 37° C., and the results were recorded after 24 h, after 48 h, after 72 h. The results are shown in Table 3-5; − indicates no colour change, +− indicates relatively discernible blue colour change, + indicates a moderately strong blue colour change and ++ indicates a strong blue colour change.

[3] = test system: Staphylococcus aureus; test: as above; design: key to Observable colour change: − indicates no colour change; +− indicates relatively discernible blue colour change; + indicates a moderately strong blue colour change; ++ indicates a strong blue colour change; settings: for colour change: SA
Protocol: as §1, §2, §3, §4, §5, §6

CCN(CC)c1ccc(NC(=O)[C@@H](N)CC(C)C)cc1.Cl [3b, (2S)-2-amino-N-[4-(diethylamino)phenyl]-4-methyl-pentanamide hydrochloride]
Observable colour change ([1]; substrate 300 mg/L, hydrochloride): blue colour changes; also recorded: Light blue
Observable colour change ([1]; substrate 600 mg/L): Light blue
Observable colour change ([1]; substrate 900 mg/L): Blue
Observable colour change ([1]; substrate 3000 mg/L): Dark blue
Observable colour change ([2]; PSA 10^4, substrate 300 mg/L, 24 h at 37° C.): −
Observable colour change ([2]; PSA 10^4, substrate 300 mg/L, 48 h at 37° C.): −
Observable colour change ([2]; PSA 10^4, substrate 300 mg/L, 72 h at 37° C.): +
Observable colour change ([2]; PSA 10^4, substrate 900 mg/L, 24 h at 37° C.): −
Observable colour change ([2]; PSA 10^4, substrate 900 mg/L, 48 h at 37° C.): −
Observable colour change ([2]; PSA 10^4, substrate 900 mg/L, 72 h at 37° C.): ++
Observable colour change ([2]; PSA 10^4, substrate 1500 mg/L, 24 h at 37° C.): −
Observable colour change ([2]; PSA 10^4, substrate 1500 mg/L, 48 h at 37° C.): −
Observable colour change ([2]; PSA 10^4, substrate 1500 mg/L, 72 h at 37° C.): ++
Observable colour change ([2]; PSA 10^6, substrate 300 mg/L, 24 h at 37° C.): −
Observable colour change ([2]; PSA 10^6, substrate 300 mg/L, 48 h at 37° C.): −
Observable colour change ([2]; PSA 10^6, substrate 300 mg/L, 72 h at 37° C.): +
Observable colour change ([2]; PSA 10^6, substrate 900 mg/L, 24 h at 37° C.): −
Observable colour change ([2]; PSA 10^6, substrate 900 mg/L, 48 h at 37° C.): +−
Observable colour change ([2]; PSA 10^6, substrate 900 mg/L, 72 h at 37° C.): ++
Observable colour change ([2]; PSA 10^6, substrate 1500 mg/L, 24 h at 37° C.): −
Observable colour change ([2]; PSA 10^6, substrate 1500 mg/L, 48 h at 37° C.): −
Observable colour change ([2]; PSA 10^6, substrate 1500 mg/L, 72 h at 37° C.): +
colour change ([2]; PSA 10^8, 10^6 or 10^4 CFU, after 72 h, every tested substrate concentration): moderate or strong blue colour changes
Observable colour change ([2]; PSA 10^8, substrate 300 mg/L, 24 h at 37° C.): −
Observable colour change ([2]; PSA 10^8, substrate 300 mg/L, 48 h at 37° C.): +
Observable colour change ([2]; PSA 10^8, substrate 300 mg/L, 72 h at 37° C.): +
Observable colour change ([2]; PSA 10^8, substrate 900 mg/L, 24 h at 37° C.): −
Observable colour change ([2]; PSA 10^8, substrate 900 mg/L, 48 h at 37° C.): ++
Observable colour change ([2]; PSA 10^8, substrate 900 mg/L, 72 h at 37° C.): ++
Observable colour change ([2]; PSA 10^8, substrate 1500 mg/L, 24 h at 37° C.): −
Observable colour change ([2]; PSA 10^8, substrate 1500 mg/L, 48 h at 37° C.): ++
Observable colour change ([2]; PSA 10^8, substrate 1500 mg/L, 72 h at 37° C.): ++
colour change ([2]; PSA 10^8 CFU, 10^6 CFU, and 104 CFU, substrate 900 mg/L, printed in the 48 h paragraph): strong blue colour changes
colour change ([2]; PSA 10^8 CFU, after 48 h incubation, substrate 900 or 1500 mg/L): strong blue colour changes
Observable colour change ([3]; SA 10^4, substrate 300 mg/L, 24 h at 37° C.): −
Observable colour change ([3]; SA 10^4, substrate 300 mg/L, 48 h at 37° C.): −
Observable colour change ([3]; SA 10^4, substrate 300 mg/L, 72 h at 37° C.): −
Observable colour change ([3]; SA 10^4, substrate 900 mg/L, 24 h at 37° C.): −
Observable colour change ([3]; SA 10^4, substrate 900 mg/L, 48 h at 37° C.): −
Observable colour change ([3]; SA 10^4, substrate 900 mg/L, 72 h at 37° C.): −
Observable colour change ([3]; SA 10^4, substrate 1500 mg/L, 24 h at 37° C.): −
Observable colour change ([3]; SA 10^4, substrate 1500 mg/L, 48 h at 37° C.): −
Observable colour change ([3]; SA 10^4, substrate 1500 mg/L, 72 h at 37° C.): −
Observable colour change ([3]; SA 10^6, substrate 300 mg/L, 24 h at 37° C.): −
Observable colour change ([3]; SA 10^6, substrate 300 mg/L, 48 h at 37° C.): −
Observable colour change ([3]; SA 10^6, substrate 300 mg/L, 72 h at 37° C.): −
Observable colour change ([3]; SA 10^6, substrate 900 mg/L, 24 h at 37° C.): −
Observable colour change ([3]; SA 10^6, substrate 900 mg/L, 48 h at 37° C.): −
Observable colour change ([3]; SA 10^6, substrate 900 mg/L, 72 h at 37° C.): −
Observable colour change ([3]; SA 10^6, substrate 1500 mg/L, 24 h at 37° C.): −
Observable colour change ([3]; SA 10^6, substrate 1500 mg/L, 48 h at 37° C.): −
Observable colour change ([3]; SA 10^6, substrate 1500 mg/L, 72 h at 37° C.): +−
Observable colour change ([3]; SA 10^8, substrate 300 mg/L, 24 h at 37° C.): −
Observable colour change ([3]; SA 10^8, substrate 300 mg/L, 48 h at 37° C.): −
Observable colour change ([3]; SA 10^8, substrate 300 mg/L, 72 h at 37° C.): −
Observable colour change ([3]; SA 10^8, substrate 900 mg/L, 24 h at 37° C.): −
Observable colour change ([3]; SA 10^8, substrate 900 mg/L, 48 h at 37° C.): −
Observable colour change ([3]; SA 10^8, substrate 900 mg/L, 72 h at 37° C.): −
Observable colour change ([3]; SA 10^8, substrate 1500 mg/L, 24 h at 37° C.): −
Observable colour change ([3]; SA 10^8, substrate 1500 mg/L, 48 h at 37° C.): +−
Observable colour change ([3]; SA 10^8, substrate 1500 mg/L, 72 h at 37° C.): +−
colour change ([3]; 48 h paragraph, substrate 1500 mg/L): weak, but discernible colour change
colour change ([3]; after 72 h, substrate 1500 mg/L): weak, hardly visible colour change
